Data from patent US4062950A, “Amino sugar derivatives” (priority 1973, dated 1977).
Several values for one entry are separate records, joined by “and”; a condition that tells them apart may be missing. Equal entries are not always repeated.

Assays:
saccharase [1] = biological target: T1, saccharase (Sus scrofa, UniProt P56729); experiment: In vitro saccharase test; assay type: biochemical, pig
T1 construct: sucrase subunit of the sucrase-isomaltase complex hydrolyses sucrose
Procedure: One saccharase inhibitor unit (SIU) is defined as the amount of inhibitor which inhibits two saccharase units to the extent of 50%. One saccharase unit (SU) is the amount of enzyme which under the test conditions specified splits 1 μmol of sucrose to glucose and fructose per minute. The μmols of glucose formed are determined quantitatively by means of the glucose oxidase reaction under conditions under which a further splitting of the sucrose by the saccharase no longer takes place. To carry out the test, 0.05 ml of solubilized saccharase [from the mucous membrane of the small intestine of the pig, according to B. Borgastrom, A. Dahlquist, Acta Chem. Scand. 12, (1958), page 1,997], diluted with 0.1 M sodium maleate buffer of pH 6.0 to a SU content adjusted to 0.12 SU is mixed with 0-20 μg of inhibitor or 0-20 μl of the solution to be tested and brought up to 0.1 ml with 0.1 M sodium maleate buffer of pH 6.0. The mixture is equilibrated for 10 minutes at 35° C and 0.1 ml of an 0.05 M sucrose solution in 0.1 M sodium maleate buffer of pH 6.0, pre-warmed to 35° C, is then added. The mixture is incubated for 20 minutes at 35° C, the saccharase reaction is stopped by addition of 1 ml of glucose oxidase reagent, and the incubation is continued for a further 30 minutes at 35° C. (The glucose oxidase reagent is prepared by dissolving 2 mg of glucose oxidase, Boehringer, No. 15,423, in 100 ml of 0.565 M tris-HCl buffer of pH 7.0 and subsequently adding 1 ml of detergent solution (2 g of Triton X 100 + 8 g of 95% strength and analytical grade ethanol), 1 ml of dianisidine solution (260 mg of o-dianisidine. 2HCl in 20 ml of H2 O) and 0.5 ml of 0.1% strength aqueous peroxidase solution, Boehringer, No. 15,302). Thereafter, 1 ml of 50% strength H2 SO4 is added and a measurement carried out at 545 nm against a corresponding blank. To evaluate the results, the percentage inhibition of the saccharase employed is calculated and converted to SIU/g of SIU/liter from the 50% inhibition point, using a glucose calibration curve.

saccharase [2] = biological target: T2, saccharase (Rattus norvegicus, UniProt P23739); experiment: In vivo saccharase inhibition (sucrose overfeeding test) in the fasting rat
T2 construct: from tissue; host or cells: intestine of the living rat (endogenous enzyme)
Procedure: The produce an alimentary hyperglycemia and hyperinsulinaemia, groups of 6 fasting rats are given (a) 2.5 g of sucrose, (b) 2.5 g of maltose or (c) 1 g of boiled starch orally, in aqueous solution or suspension. Six other rats are given the same carbohydrates in the same amount and a glycoside hydrolase inhibitor in the amount indicated. In addition, six other rats are given an appropriate volume of saline. The blood glucose and the serum insulin are then measured at short intervals of time, in the blood from the retro-orbital venous plexus. Blood glucose determinations are carried out in the Auto-Analyser device (Technicon), according to Hoffmann: J. biol.

starch digestion = experiment: In vivo starch digestion inhibition (starch feeding test) in the fasting rat
pancreas-α-amylase = biological target: T3, pancreas-α-amylase (Sus scrofa, UniProt P00690); experiment: In vitro amylase test; assay type: biochemical
T3 sequence (P00690 16-511): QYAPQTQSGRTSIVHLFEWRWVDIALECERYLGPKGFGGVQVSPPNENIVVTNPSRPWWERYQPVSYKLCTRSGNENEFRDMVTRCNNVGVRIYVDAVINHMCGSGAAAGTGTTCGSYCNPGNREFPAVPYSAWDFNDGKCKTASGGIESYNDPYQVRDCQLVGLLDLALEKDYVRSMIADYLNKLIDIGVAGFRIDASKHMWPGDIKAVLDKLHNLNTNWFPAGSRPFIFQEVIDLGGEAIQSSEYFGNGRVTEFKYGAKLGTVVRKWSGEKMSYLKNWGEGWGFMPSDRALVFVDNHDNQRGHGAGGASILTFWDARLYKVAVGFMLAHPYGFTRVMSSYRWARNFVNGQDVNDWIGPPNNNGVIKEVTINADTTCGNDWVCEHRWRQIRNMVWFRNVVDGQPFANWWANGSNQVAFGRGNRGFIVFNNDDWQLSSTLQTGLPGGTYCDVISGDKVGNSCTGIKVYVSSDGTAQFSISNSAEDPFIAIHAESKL
Procedure: One amylase inhibitor unit (1 AIU) is defined as the amount of inhibitor which inhibits two amylase units to the extent of 50%. One amylase unit (AU) is the amount of enzyme which under the test conditions specified below splits 1 μequivalent of glucoside bonds in the starch per minute. The μequivalents of split bonds are determined colorimetrically as μequivalents of reducing sugars formed, using dinitrosalicylic acid, and are quoted as μequivalents of maltose equivalents, using a maltose calibration curve. To carry out the test, 0.1 ml of amylase solution (20-22 AU/ml) are mixed with 0-10 μg of inhibitor or 0-20 μl of the solution to be tested in 0.4 ml of 0.02 M sodium glycerophosphate buffer/0.001 M CaCl2, pH 6.9, and the mixture is equilibrated for 10-20 minutes in a water bath at 35° C. The mixture is then incubated for 5 minutes at 35° C with 0.5 ml of a 1% strength starch solution which has been pre-warmed to 35° C (soluble starch No. 1,252 from Merck, Darmstadt), and thereafter 1 ml of dinitrosalicyclic acid reagent (according to P. bernfeld in Colowick-Kaplan, Meth. Enzymol., Volume l, page 149) is added. To develop the color, the batch is heated for 5 minutes on a boiling water bath and then cooled, and 10 ml of distilled water are added. The extinction at 540 nm is measured against a correspondingly made-up blank without amylase. […] The percentage inhibition is plotted as a function of the quotient [formula]

T1 sequence (P56729 with tags, fused parts or gaps): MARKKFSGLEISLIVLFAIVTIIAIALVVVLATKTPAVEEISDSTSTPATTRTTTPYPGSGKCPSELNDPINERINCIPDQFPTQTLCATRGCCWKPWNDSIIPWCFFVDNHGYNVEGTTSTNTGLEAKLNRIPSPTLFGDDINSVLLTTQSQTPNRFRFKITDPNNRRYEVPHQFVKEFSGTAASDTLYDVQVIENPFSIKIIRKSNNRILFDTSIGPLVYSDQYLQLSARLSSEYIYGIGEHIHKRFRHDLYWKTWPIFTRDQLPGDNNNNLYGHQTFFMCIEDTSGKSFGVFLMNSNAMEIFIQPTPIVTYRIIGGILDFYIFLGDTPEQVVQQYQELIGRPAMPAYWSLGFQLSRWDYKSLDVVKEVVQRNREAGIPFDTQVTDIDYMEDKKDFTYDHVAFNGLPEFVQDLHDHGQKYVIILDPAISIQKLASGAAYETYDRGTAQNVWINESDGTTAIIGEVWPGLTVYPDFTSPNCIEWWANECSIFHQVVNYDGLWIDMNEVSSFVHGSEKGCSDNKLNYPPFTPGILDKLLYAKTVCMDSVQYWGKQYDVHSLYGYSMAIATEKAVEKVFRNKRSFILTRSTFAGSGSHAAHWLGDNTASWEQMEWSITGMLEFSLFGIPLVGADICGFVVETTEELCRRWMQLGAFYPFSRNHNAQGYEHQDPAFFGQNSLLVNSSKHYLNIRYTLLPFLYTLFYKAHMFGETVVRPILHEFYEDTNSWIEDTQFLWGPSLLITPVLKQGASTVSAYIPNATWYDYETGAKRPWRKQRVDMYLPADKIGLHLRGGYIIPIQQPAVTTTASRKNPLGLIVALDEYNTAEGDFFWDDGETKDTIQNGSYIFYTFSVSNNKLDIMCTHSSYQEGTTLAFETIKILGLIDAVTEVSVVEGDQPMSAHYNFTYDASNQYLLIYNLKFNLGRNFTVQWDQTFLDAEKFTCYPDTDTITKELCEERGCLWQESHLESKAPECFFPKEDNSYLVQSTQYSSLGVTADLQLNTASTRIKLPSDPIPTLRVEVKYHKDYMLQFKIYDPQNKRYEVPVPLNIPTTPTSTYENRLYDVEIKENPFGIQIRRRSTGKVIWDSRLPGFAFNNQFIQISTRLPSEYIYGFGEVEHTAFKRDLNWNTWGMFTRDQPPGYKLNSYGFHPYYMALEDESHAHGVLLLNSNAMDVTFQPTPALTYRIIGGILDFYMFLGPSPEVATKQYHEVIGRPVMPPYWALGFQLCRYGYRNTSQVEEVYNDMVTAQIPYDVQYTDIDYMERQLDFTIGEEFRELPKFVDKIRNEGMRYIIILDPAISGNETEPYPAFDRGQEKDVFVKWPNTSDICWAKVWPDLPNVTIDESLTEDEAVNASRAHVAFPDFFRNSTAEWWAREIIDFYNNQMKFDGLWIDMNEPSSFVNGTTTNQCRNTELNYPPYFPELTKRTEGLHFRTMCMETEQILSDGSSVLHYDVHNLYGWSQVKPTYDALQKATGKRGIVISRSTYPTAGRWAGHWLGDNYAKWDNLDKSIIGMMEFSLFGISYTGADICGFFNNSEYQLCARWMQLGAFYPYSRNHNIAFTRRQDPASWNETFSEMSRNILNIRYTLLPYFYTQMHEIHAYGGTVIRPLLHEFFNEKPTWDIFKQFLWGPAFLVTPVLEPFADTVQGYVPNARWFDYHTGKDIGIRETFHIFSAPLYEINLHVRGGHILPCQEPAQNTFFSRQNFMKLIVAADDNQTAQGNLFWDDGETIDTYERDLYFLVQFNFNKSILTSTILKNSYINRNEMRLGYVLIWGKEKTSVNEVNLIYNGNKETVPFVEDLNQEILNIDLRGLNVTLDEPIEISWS
T2 sequence (P23739 1014-1841 limits assumed): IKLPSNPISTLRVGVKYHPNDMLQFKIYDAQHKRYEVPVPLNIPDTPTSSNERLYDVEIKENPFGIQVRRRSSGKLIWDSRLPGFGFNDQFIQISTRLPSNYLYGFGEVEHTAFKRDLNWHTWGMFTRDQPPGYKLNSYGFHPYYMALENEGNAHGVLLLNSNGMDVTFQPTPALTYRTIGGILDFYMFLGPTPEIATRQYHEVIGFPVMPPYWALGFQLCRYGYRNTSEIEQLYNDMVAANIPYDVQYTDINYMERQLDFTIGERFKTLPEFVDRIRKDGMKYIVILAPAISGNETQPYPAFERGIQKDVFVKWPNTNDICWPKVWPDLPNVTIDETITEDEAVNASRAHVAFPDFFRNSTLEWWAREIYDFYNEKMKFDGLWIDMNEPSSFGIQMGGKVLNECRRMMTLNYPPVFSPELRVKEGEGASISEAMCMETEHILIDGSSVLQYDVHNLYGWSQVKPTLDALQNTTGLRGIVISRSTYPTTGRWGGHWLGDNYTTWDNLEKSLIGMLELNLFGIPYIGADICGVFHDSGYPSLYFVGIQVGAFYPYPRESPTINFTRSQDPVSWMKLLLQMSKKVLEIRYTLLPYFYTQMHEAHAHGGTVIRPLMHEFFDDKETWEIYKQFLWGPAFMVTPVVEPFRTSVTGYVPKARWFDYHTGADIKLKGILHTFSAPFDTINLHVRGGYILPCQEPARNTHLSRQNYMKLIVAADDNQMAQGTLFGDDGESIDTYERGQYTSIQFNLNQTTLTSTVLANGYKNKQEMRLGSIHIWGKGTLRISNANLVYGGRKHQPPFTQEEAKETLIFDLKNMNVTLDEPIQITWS
T2 sequence (P23739 2-1013 partner limits assumed): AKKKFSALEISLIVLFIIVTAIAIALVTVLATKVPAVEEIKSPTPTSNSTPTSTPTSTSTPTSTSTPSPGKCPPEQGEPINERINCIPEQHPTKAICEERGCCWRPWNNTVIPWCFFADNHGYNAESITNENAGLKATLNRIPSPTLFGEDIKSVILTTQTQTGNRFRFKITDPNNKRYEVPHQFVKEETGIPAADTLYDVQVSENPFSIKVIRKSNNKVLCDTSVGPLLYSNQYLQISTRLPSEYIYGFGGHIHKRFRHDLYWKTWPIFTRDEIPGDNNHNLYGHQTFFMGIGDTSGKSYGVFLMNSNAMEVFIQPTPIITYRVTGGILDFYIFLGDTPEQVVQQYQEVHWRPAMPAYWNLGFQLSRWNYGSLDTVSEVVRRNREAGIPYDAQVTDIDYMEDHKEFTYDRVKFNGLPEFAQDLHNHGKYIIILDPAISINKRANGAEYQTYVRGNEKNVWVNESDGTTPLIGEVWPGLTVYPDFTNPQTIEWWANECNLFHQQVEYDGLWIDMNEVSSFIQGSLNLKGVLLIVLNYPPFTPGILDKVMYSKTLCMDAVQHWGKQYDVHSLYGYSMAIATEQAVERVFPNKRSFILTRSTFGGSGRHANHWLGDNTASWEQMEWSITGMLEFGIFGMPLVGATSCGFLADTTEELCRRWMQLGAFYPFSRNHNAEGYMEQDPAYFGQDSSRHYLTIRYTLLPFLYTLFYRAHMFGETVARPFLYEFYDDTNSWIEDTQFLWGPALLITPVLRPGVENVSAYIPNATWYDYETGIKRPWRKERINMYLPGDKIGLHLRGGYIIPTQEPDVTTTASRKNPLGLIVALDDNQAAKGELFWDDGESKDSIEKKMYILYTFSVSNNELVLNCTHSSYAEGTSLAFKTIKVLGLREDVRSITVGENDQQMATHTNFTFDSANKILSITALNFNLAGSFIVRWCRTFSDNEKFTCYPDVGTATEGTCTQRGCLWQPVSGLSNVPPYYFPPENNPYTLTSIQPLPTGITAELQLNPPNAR

Saccharase inhibition relative to the derivative having two units (saccharase [1]; in vitro, in words): only half as much
Saccharase Inhibition (saccharase [1]; in vitro, Table II): 30,000 SIU/g
Saccharase Inhibition In Vitro (saccharase [1]; in vitro, Table IV): 30 SIU/mg
saccharase inhibiting activity of isolated product (saccharase [1]; product of the Examples, listed as one glucose unit): 30,000 SIU/g and 35,000 SIU/g
Blood Glucose (Mean ± SD) (saccharase [2]; 2.5 g sucrose + 50 SIU oral, 15 Min.): 105 ± 11 mg%
Blood Glucose (Mean ± SD) (saccharase [2]; 2.5 g sucrose + 50 SIU oral, 30 Min.): 123 ± 5.2 mg%
Blood Glucose (Mean ± SD) (saccharase [2]; 2.5 g sucrose + 50 SIU oral, 45 Min.): 128 ± 11 mg%
Blood Glucose (Mean ± SD) (saccharase [2]; 2.5 g sucrose + 100 SIU oral, 15 Min.): 89 ± 6.5 mg%
Blood Glucose (Mean ± SD) (saccharase [2]; 2.5 g sucrose + 100 SIU oral, 30 Min.): 111 ± 4.1 mg%
Blood Glucose (Mean ± SD) (saccharase [2]; 2.5 g sucrose + 100 SIU oral, 45 Min.): 116 ± 3.9 mg%
Blood Glucose (Mean ± SD) (saccharase [2]; 2.5 g sucrose + 200 SIU oral, 15 Min.): 72 ± 4.6 mg%
Blood Glucose (Mean ± SD) (saccharase [2]; 2.5 g sucrose + 200 SIU oral, 30 Min.): 95 ± 9.1 mg%
Blood Glucose (Mean ± SD) (saccharase [2]; 2.5 g sucrose + 200 SIU oral, 45 Min.): 104 ± 9.6 mg%
ED50 (saccharase [2]; read-out: Saccharase Inhibition (ED50 mg/kg), ED50, sucrose, fasting rat, Table IV, read-out: Saccharase Inhibition In Vitro (ED50 mg/kg)): 3 mg/kg
α-Amylase Inhibition (pancreas-α-amylase; in vitro, Table II): 300,000 AIU/g
α-Amylase Inhibition In Vitro (pancreas-α-amylase; in vitro, Table VI): 300 AIU/mg
amylase inhibiting activity of isolated product (pancreas-α-amylase; isolated product of the Examples): 0.3 × 10^6 AIU/g
SMILES: C[C@H]1O[C@H](O[C@H]2[C@H](O)[C@@H](O)C(O)O[C@@H]2CO)[C@H](O)[C@@H](O)[C@@H]1N[C@H]1C=C(CO)[C@@H](O)[C@H](O)[C@H]1O (stereo partly drawn) [Formula IIB, O-{4,6-bisdesoxy-4-[1 S-(1,4,6/5)-4,5,6-trihydroxy-3-hydroxymethylcyclohex-2-en-1-ylamino]-α-D-glucopyranosyl}-(1→4)-D-glucopyranose]
Blood Glucose (Mean ± SD) (starch digestion; 1 g starch + 75 AIU oral, 5 Min.): 102 ± 2.9 mg%
Blood Glucose (Mean ± SD) (starch digestion; 1 g starch + 75 AIU oral, 10 Min.): 130 ± 6.9 mg%
Blood Glucose (Mean ± SD) (starch digestion; 1 g starch + 75 AIU oral, 15 Min.): 128 ± 5.4 mg%
Blood Glucose (Mean ± SD) (starch digestion; 1 g starch + 75 AIU oral, 20 Min.): 143 ± 11 mg%
Blood Glucose (Mean ± SD) (starch digestion; 1 g starch + 75 AIU oral, 30 Min.): 125 ± 11 mg%
Blood Glucose (Mean ± SD) (starch digestion; 1 g starch + 75 AIU oral, 45 Min.): 132 ± 18 mg%
Blood Glucose (Mean ± SD) (starch digestion; 1 g starch + 150 AIU oral, 5 Min.): 98 ± 8.7 mg%
Blood Glucose (Mean ± SD) (starch digestion; 1 g starch + 150 AIU oral, 10 Min.): 116 ± 9.0 mg%
Blood Glucose (Mean ± SD) (starch digestion; 1 g starch + 150 AIU oral, 15 Min.): 128 ± 5.8 mg%
Blood Glucose (Mean ± SD) (starch digestion; 1 g starch + 150 AIU oral, 20 Min.): 127 ± 4.8 mg%
Blood Glucose (Mean ± SD) (starch digestion; 1 g starch + 150 AIU oral, 30 Min.): 115 ± 5.2 mg%
Blood Glucose (Mean ± SD) (starch digestion; 1 g starch + 150 AIU oral, 45 Min.): 137 ± 5.2 mg%
Blood Glucose (Mean ± SD) (starch digestion; 1 g starch + 300 AIU oral, 5 Min.): 87 ± 13 mg%
Blood Glucose (Mean ± SD) (starch digestion; 1 g starch + 300 AIU oral, 10 Min.): 106 ± 1.8 mg%
Blood Glucose (Mean ± SD) (starch digestion; 1 g starch + 300 AIU oral, 15 Min.): 110 ± 8.9 mg%
Blood Glucose (Mean ± SD) (starch digestion; 1 g starch + 300 AIU oral, 20 Min.): 111 ± 2.1 mg%
Blood Glucose (Mean ± SD) (starch digestion; 1 g starch + 300 AIU oral, 30 Min.): 108 ± 5.3 mg%
Blood Glucose (Mean ± SD) (starch digestion; 1 g starch + 300 AIU oral, 45 Min.): 121 ± 7.2 mg%
ED50 (starch digestion; ED50, starch, fasting rat, Table VI): 0.76 mg/kg
in vivo inhibition of starch digestion, in words (starch digestion; compared with expectation from in vitro amylase inhibition): much higher than would be expected
